Results from patent US20130289019A1, “METHODS OF TREATING BEHAVIORIAL AND/OR MENTAL DISORDERS” (AMAZING GRACE, INC., priority 2012, published 2013).
“Also recorded” adds a separate entry of the source.

Assays:
Assay type in all cases: in vivo, rat
[1] = tested on: ACh outflow in the NAcShell and swimming of rats; test: local fluoxetine infusion in NAcShell: ACh outflow and swim test
[2] = tested on: rats (basal extracellular ACh in the NAcShell, swim test); test: chronic systemic fluoxetine: basal extracellular ACh in NAcShell and swim test
[3] = tested on: rats (NAcShell infusion); test: locomotor activity in the open field after bilateral fluoxetine infusion into NAcShell
[4] = tested on: rats (NAc infusion); test: swim test scores during bilateral fluoxetine infusion in the NAc
[5] = 0.2 mM bilateral in NAc, fluoxetine on Day 2 (Ringer Day 3)
[6] = 0.2 mM bilateral in NAc, fluoxetine on Day 3 (Ringer Day 2)
[7] = 0.2 mM bilateral in NAc, on Day 2 or Day 3 (combined)
[8] = 0.5 mM bilateral in NAc, fluoxetine on Day 2 (Ringer Day 3)
[9] = 0.5 mM bilateral in NAc, fluoxetine on Day 3 (Ringer Day 2)
[10] = 0.5 mM bilateral in NAc, on Day 2 or Day 3 (combined)
[11] = 0.75 mM bilateral in NAc, fluoxetine on Day 2 (Ringer Day 3)
[12] = 0.75 mM bilateral in NAc, fluoxetine on Day 3 (Ringer Day 2)
[13] = 0.75 mM bilateral in NAc, on Day 2 or Day 3 (combined)

CNCCC(Oc1ccc(C(F)(F)F)cc1)c1ccccc1 (centres unmarked) [Fluoxetine]
swimming time greater than during Ringer ([1]; 1.0 mM local infusion in NAcShell, n=8): 18.9%
swimming time during fluoxetine ([1]; 1.0 mM local infusion in NAcShell, n=8, Ringer 277±44 sec): 329 ± 45 s
ACh outflow in the NAcShell, effect in words ([1]; during and following 1.0 mM fluoxetine infusion, vs Ringer infusion or pretest): substantially lower; also recorded: decreases the extracellular level of ACh
immobility in the swim test, effect in words ([1]; unilateral infusion into NAcShell): decreases immobility
swimming plus climbing scores (total escape efforts) ([2]; following chronic fluoxetine treatment, saline 42±11): 55±7
basal ACh level in the NAcShell, effect in words ([2]; low dose subcutaneously, daily over 14 days, rats in the forced swimming test): normalizes the chronic elevation in basal ACh level
locomotor activity in the open field, in words [3]: does not affect locomotor activity
Climbing score, FLU [4, 5]: 39 ± 12
Immobility score, FLU [4, 5]: 66 ± 30
Swimming score, FLU [4, 5]: 15 ± 17
Climbing score, FLU [4, 6]: 60 ± 15
Immobility score, FLU [4, 6]: 45 ± 13
Swimming score, FLU [4, 6]: 14 ± 8
Climbing score, FLU [4, 7]: 52 ± 10
Immobility score, FLU [4, 7]: 53 ± 12
Swimming score, FLU [4, 7]: 14 ± 7
Climbing score, FLU [4, 8]: 45 ± 12
Immobility score, FLU [4, 8]: 68 ± 9
Swimming score, FLU [4, 8]: 6 ± 3
Climbing score, FLU [4, 9]: 74 ± 10
Immobility score, FLU [4, 9]: 39 ± 10
Swimming score, FLU [4, 9]: 7 ± 6
Climbing score, FLU [4, 10]: 61 ± 9
Immobility score, FLU [4, 10]: 51 ± 8
Swimming score, FLU [4, 10]: 7 ± 3
Climbing score, FLU [4, 11]: 44 ± 10
Immobility score, FLU [4, 11]: 62 ± 11
Swimming score, FLU [4, 11]: 14 ± 7
Climbing score, FLU [4, 12]: 57 ± 9
Immobility score, FLU [4, 12]: 53 ± 7
Swimming score, FLU [4, 12]: 10 ± 4
Climbing score, FLU [4, 13]: 57 ± 9
Immobility score, FLU [4, 13]: 53 ± 7
Swimming score, FLU [4, 13]: 10 ± 4
immobility in the swim test, effect in words ([4]; bilateral infusion into NAcShell, dose-dependently): decreases immobility
